Values joined by “and” are separate entries in the source; they are usually repeats but may differ in a detail not shown here. Identical values can stand only once.

From paper PMC10313368 (The Journal of Clinical Investigation, 2023) come the findings set out here.

Assay [1] relates to HIF-regulated vasoactive mediators. Description: mRNA expression of HIF-regulated vasoactive mediators in retina of STZ-induced diabetic mice (qPCR). Type of assay: in vivo, mouse. The settings on record: STZ mice, replicates; for Angptl4 mRNA / Vegfa mRNA: S Figure 3B; for Angpt2 mRNA / Ptprb mRNA: S Figure 3C. Here is the method:
Reverse transcription and quantitative real-time PCR. Total RNA was isolated from cultured cells or retinas with PureLinkTM RNA Mini Kit (Invitrogen #12183025), and cDNA was prepared with MuLV Reverse Transcriptase (Applied Biosystems). Quantitative real-time PCR was performed with Power SYBR Green PCR Master Mix (Applied Biosystems) and MyiQ Real-Time PCR Detection System (Bio-Rad). Normalization was done using cyclophilin A for mouse tissue and human cell lines. Primers are listed in Supplemental Table 2. […]
STZ-induced diabetes mouse model. 8-to-10 week-old male mice received an IP injection of STZ at 40 mg/kg of body weight in 0.1M of citrate buffer (pH 4.5) for 5 consecutive days. Normal chow and 10% sucrose water were provided during this period. 10% sucrose was discontinued and replaced with regular water on experimental day 6. Blood glucose was measured on experimental day 28 after 16 hours fasting and mice with blood glucose level > 250 mg/dL were considered […]
Intraperitoneal (IP) injections. […]

Assay [2] has as its target T1, HIF-1α (Mus musculus, UniProt Q61221).
T1 construct: from tissue; host or cells: retina of C57BL/6 OIR pups
Description: Western blot of HIF-1α in neurosensory retina of STZ-diabetic mice. The settings on record: IP 32-134D 40 or 80 mg/kg; Supplementary Figure 3. Type of assay: in vivo. On the procedure: Immunoblot assays. Cells, neurosensory retina, and D120 retinal organoid lysates were subjected to 4–15% gradient SDS/PAGE (Invitrogen). Immunoblot (Western blot or WB) assays were performed as previously described (1).
Reverse transcription and quantitative real-time PCR. Total RNA was isolated from cultured cells or retinas with PureLinkTM RNA Mini Kit (Invitrogen #12183025), and cDNA was prepared with MuLV Reverse Transcriptase (Applied Biosystems). Quantitative real-time PCR was performed with Power SYBR Green PCR Master Mix (Applied Biosystems) and MyiQ Real-Time PCR Detection System (Bio-Rad). Normalization was done using cyclophilin A for mouse tissue and human cell lines. Primers are listed in Supplemental Table 2.
Angiogenesis array. Total RNA was isolated from MIO-MI cells (8 hours) and HUVECs (16 […]
cDNA was prepared with QuantiTect® Reverse Transcription Kit (Qiagen, Cat# 205311). […]
STZ-induced diabetes mouse model. […] Blood glucose was measured on experimental day 28 after 16 hours fasting and mice with blood glucose level > 250 mg/dL were considered […]
the peritoneal cavity of neonatal C57BL/6 mice and STZ mice at indicated times, and the retinal vasculature and lysates for WB and qPCR were assessed at P17. […]
Background: In western blotting, separated proteins are transferred to a membrane and probed.

T1 sequence (Q61221 whole entry): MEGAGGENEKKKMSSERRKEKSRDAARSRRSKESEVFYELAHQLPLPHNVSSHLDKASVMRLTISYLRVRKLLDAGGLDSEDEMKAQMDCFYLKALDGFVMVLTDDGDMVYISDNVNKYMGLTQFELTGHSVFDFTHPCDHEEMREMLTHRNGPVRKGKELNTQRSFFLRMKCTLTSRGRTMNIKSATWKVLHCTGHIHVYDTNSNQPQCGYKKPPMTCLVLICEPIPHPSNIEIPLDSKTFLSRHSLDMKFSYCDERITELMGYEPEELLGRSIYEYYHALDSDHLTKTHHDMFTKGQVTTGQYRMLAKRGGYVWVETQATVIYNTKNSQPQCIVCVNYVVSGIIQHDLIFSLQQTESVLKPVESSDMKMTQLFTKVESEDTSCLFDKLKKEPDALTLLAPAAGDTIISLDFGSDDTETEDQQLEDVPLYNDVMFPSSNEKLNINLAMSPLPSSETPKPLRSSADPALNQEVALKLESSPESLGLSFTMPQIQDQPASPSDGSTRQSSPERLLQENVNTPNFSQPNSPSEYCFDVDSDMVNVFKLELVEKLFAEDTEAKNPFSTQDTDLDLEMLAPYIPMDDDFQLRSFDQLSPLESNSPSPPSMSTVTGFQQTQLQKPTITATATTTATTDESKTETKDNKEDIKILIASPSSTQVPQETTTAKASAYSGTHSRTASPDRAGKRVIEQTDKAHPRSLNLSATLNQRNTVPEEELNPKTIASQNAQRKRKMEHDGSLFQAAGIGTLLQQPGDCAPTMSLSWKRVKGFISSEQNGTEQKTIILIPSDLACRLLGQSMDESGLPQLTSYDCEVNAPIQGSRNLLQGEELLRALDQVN

Consider `Brc1ccc2c(-c3csc(-c4c[nH]c5c(Br)cccc45)n3)c[nH]c2c1` [32-134D, 4-(6-bromo-1H-indol-3-yl)-2-(7-bromo-1H-indol-3-yl)thiazole], for which, in assay [1] (40mg/kg i.p., 40 mg/kg), the “Angptl4 mRNA” value was 0.6634 and 0.674 and 0.6653; the “Vegfa mRNA” value was 1.885 and 1.498 and 1.761; the “Angpt2 mRNA” value was 0.559 and 0.5248 and 0.5704; the “Ptprb mRNA” value was 0.7022 and 0.6022 and 0.6973. In addition, in assay [1] (80mg/kg i.p., 80 mg/kg), the “Angptl4 mRNA” value is 0.5186 and 0.5762 and 0.6276; the “Vegfa mRNA” value is 1.453 and 1.442 and 1.52; the “Angpt2 mRNA” value was 0.5647 and 0.5575 and 0.5047; the “Ptprb mRNA” value is 0.8502 and 0.8904 and 0.75. In addition, the “HIF-1α expression in neurosensory retina of STZ mice” value in assay [2] is recorded as “inhibits HIF”.
